Data set [1] addresses T1, Recombinant human PI3Kγ (full length human PI3K p110γ) (Homo sapiens, UniProt P48736).
T1 construct: full length human PI3K p110γ fused with a His6-tag at the C-terminus; His6 (C); purchased ALEXIS BIOCHEMICALS #201-055-C010; host or cells: S. frugiperda 9 insect cells
The data set can be described thus: Kinase assay of PI3Kγ (solid-phase lipid kinase assay). The class given is biochemical. To be noted: in vitro PI3K-γ inhibitory activity, class symbols; read-out: in vitro PI3K-gamma.

T1 sequence (P48736 whole entry, the tested form may be a part): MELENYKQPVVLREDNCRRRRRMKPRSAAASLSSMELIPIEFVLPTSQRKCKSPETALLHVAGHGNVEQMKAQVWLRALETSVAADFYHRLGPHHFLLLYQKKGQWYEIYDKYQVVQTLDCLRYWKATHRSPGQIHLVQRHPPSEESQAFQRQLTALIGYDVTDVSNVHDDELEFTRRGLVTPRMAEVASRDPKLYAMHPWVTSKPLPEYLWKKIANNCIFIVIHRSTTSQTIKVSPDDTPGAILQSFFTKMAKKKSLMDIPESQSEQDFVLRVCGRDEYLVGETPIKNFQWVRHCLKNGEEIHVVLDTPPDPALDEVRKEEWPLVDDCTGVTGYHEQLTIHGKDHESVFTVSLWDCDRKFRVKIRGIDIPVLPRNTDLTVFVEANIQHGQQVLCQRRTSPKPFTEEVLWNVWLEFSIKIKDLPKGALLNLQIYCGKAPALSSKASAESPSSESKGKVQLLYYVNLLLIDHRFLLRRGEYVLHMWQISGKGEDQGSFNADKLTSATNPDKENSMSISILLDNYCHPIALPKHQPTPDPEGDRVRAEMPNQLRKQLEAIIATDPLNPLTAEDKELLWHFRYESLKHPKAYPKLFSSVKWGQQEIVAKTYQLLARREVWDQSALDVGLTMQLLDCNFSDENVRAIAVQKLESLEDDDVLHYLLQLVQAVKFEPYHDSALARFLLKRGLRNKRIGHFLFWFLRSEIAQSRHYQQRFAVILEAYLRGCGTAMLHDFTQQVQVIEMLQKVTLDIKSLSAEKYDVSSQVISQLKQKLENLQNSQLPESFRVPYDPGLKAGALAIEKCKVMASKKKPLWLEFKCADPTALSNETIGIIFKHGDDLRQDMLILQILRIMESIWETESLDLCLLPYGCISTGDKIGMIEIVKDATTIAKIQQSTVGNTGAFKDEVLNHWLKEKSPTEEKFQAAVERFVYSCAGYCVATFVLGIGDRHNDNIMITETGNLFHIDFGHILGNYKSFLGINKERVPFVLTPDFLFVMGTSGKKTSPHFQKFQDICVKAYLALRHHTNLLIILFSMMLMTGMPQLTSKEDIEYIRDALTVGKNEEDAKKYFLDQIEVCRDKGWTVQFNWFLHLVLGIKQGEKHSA

On to `Cc1cc(Br)c2c(c1)C1=NCCN1C(NC(=O)c1ccc3[nH]cnc3c1)=N2` [Example 2-75], for which the melting point (in general, the temperature of the solid-liquid transition) is over 290 °C. Moreover, the IC50 in data set [1] is 0.1 to 0.5 µM.
As for `COc1cc2c(c(OC)c1C)N=C(NC(=O)c1cccnc1)N1CCN=C21.Cl` [Example 2-76], the melting point was 235 °C (dec.). In data set [1], the IC50 was in the range of 0.1 to 0.5 µM.
Turning to `COc1cc2c(c(OC)c1C)N=C(NC(=O)c1cccnc1C)N1CCN=C21` [Example 2-77], the melting point is 210 °C (dec.). For the same compound, the IC50 in data set [1] was under 0.1 µM.
On the same counts, the results for `COc1cc2c(c(OC)c1C)N=C(NC(=O)c1ccc(NC(C)=O)nc1)N1CCN=C21` [Example 2-79] are over 310 °C and 0.1 to 0.5 µM.
On the same counts, the results for `COc1cc2c(c(OC)c1C)N=C(NC(=O)c1ccc(NC(C)=O)nc1)N1CCN=C21.Cl` [Example 2-80] are 305 °C (dec.) and under 0.1 µM.
In the case of `COc1cc2c(c(OC)c1C)N=C(NC(=O)c1ccc3[nH]cnc3c1)N1CCN=C21` [Example 2-81], the melting point stood at 202 °C. The IC50 in data set [1] was in the range of 0.1 to 0.5 µM.
For `Cl.O=C(NC1=Nc2ccc(F)cc2C2=NCCN12)c1ccc2[nH]cnc2c1` [Example 2-83], the melting point is over 300 °C. Moreover, in data set [1], the IC50 was in the range of 0.1 to 0.5 µM.
Taken in the same sequence, the figures for `O=C(NC1=Nc2ccc(Cl)cc2C2=NCCN12)c1cccnc1` [Example 2-84] were 210 °C and 0.1 to 0.5 µM.
Taken in the same sequence, the figures for `Cl.O=C(NC1=Nc2ccc(Cl)cc2C2=NCCN12)c1ccc2[nH]cnc2c1` [Example 2-86] were 305 °C (dec.) and 0.1 to 0.5 µM.
Taken in the same sequence, the figures for `O=C(NC1=Nc2ccc(Br)cc2C2=NCCN12)c1cccnc1` [Example 2-87] were 228 °C and 0.1 to 0.5 µM.
In turn, `Cl.O=C(NC1=Nc2ccc(Br)cc2C2=NCCN12)c1ccc2[nH]cnc2c1` [Example 2-89] had a melting point of 288 °C. Also, the IC50 in data set [1] was 0.1 to 0.5 µM.
On the same counts, the results for `Cc1ccc2c(c1)C1=NCCN1C(NC(=O)c1cccnc1)=N2` [Example 2-90] are 210 °C and under 0.1 µM.
With `Cc1ccc2c(c1)C1=NCCN1C(NC(=O)c1cccnc1)=N2.Cl` [Example 2-91], the melting point was over 290 °C. Further, the IC50 in data set [1] fell in the range of 0.1 to 0.5 µM.
Taken in the same sequence, the figures for `Cc1ccc2c(c1)C1=NCCN1C(NC(=O)c1ccc3[nH]cnc3c1)=N2.Cl` [Example 2-92] were over 290 °C and under 0.1 µM.
The compound `COc1ccc2c(c1)C1=NCCN1C(NC(=O)c1cccnc1)=N2.Cl` [Example 2-93] displayed a melting point of over 300 °C. For the same compound, the IC50 in data set [1] lay within 0.1 to 0.5 µM.
Taken in the same sequence, the figures for `COc1ccc2c(c1)C1=NCCN1C(NC(=O)c1ccc3[nH]cnc3c1)=N2.Cl` [Example 2-94] were 288 °C and under 0.1 µM.
Regarding `C=Cc1ccc2c(c1)C1=NCCN1C(NC(=O)c1cccnc1)=N2` [Example 2-95], the melting point lay in the range of 196 to 198 °C. Also, the IC50 in data set [1] was 0.1 to 0.5 µM.
On the same counts, the results for `Cl.O=C(NC1=Nc2ccc(-c3ccco3)cc2C2=NCCN12)c1cccnc1` [Example 2-97] are 298 to 299 °C and 0.1 to 0.5 µM.
On the same counts, the results for `Cl.O=C(NC1=Nc2cccc(Cl)c2C2=NCCN12)c1cccnc1` [Example 2-98] are 249 °C and 0.1 to 0.5 µM.
In turn, `O=C(NC1=Nc2c(F)cccc2C2=NCCN12)c1cccnc1` [Example 2-99] gave a melting point of 243 °C. Also, the IC50 in data set [1] was 0.1 to 0.5 µM.
Regarding `Cl.O=C(NC1=Nc2c(F)cccc2C2=NCCN12)c1cccnc1` [Example 2-100], the melting point worked out at 288 °C. Besides, in data set [1], the IC50 is under 0.1 µM.
In the case of `O=C(NC1=Nc2c(F)cccc2C2=NCCN12)c1ccc2[nH]cnc2c1` [Example 2-101], the melting point is over 300 °C. Also, the IC50 in data set [1] is under 0.1 µM.
The compound `Cl.O=C(NC1=Nc2c(Cl)cccc2C2=NCCN12)c1cccnc1` [Example 2-103] gave a melting point of over 280 °C. Further, the IC50 in data set [1] is 0.1 to 0.5 µM.
Taken in the same sequence, the figures for `CC(=O)Nc1ccc(C(=O)NC2=Nc3c(Cl)cccc3C3=NCCN23)cn1` [Example 2-104] were over 280 °C and 0.1 to 0.5 µM.
Compound `CC(=O)Nc1ccc(C(=O)NC2=Nc3c(Cl)cccc3C3=NCCN23)cn1.Cl` [Example 2-105] yielded a melting point of over 280 °C. Further, in data set [1], the IC50 was under 0.1 µM.
Regarding `Cl.O=C(NC1=Nc2c(Cl)cccc2C2=NCCN12)c1ccc2[nH]cnc2c1` [Example 2-106], the melting point is over 280 °C. In addition, the IC50 in data set [1] was 0.1 to 0.5 µM.
`Cc1cccc2c1N=C(NC(=O)c1cccnc1)N1CCN=C21` [Example 2-107] showed a melting point of 244 °C. Also, the IC50 in data set [1] fell in the range of 0.1 to 0.5 µM.
On the same counts, the results for `Cc1cccc2c1N=C(NC(=O)c1ccc3[nH]cnc3c1)N1CCN=C21` [Example 2-109] are over 290 °C and under 0.1 µM.
On the same counts, the results for `Cl.O=C(NC1=Nc2c(cccc2C(F)(F)F)C2=NCCN12)c1cccnc1` [Example 2-111] are 263 °C and under 0.1 µM.
Taken in the same sequence, the figures for `O=C(NC1=Nc2c(cccc2C(F)(F)F)C2=NCCN12)c1ccc2[nH]cnc2c1` [Example 2-112] were 286 °C and under 0.1 µM.
Take `COc1cccc2c1N=C(NC(=O)c1cccnc1)N1CCN=C21` [Example 2-114]: the melting point worked out at 110 °C. Moreover, the IC50 in data set [1] is under 0.1 µM.
On the same counts, the results for `COc1cccc2c1N=C(NC(=O)c1cccnc1C)N1CCN=C21` [Example 2-116] are 204 to 205 °C and 0.1 to 0.5 µM.
As for `COc1cccc2c1N=C(NC(=O)c1cccnc1C)N1CCN=C21.Cl` [Example 2-117], the melting point is 251 °C (dec.). Further, the IC50 in data set [1] is under 0.1 µM.
Take `COc1cccc2c1N=C(NC(=O)c1cccnc1Cl)N1CCN=C21` [Example 2-118]: the melting point is 185 °C (dec.). Besides, the IC50 in data set [1] is under 0.1 µM.
Taken in the same sequence, the figures for `COc1cccc2c1N=C(NC(=O)c1cnccc1C)N1CCN=C21.Cl` [Example 2-120] were 220 °C (dec.) and under 0.1 µM.
On to `COc1cccc2c1N=C(NC(=O)c1cnccc1C(F)(F)F)N1CCN=C21` [Example 2-121], for which the melting point was 144 to 145 °C. In addition, the IC50 in data set [1] was in the range of 0.1 to 0.5 µM.
On the same counts, the results for `COc1cccc2c1N=C(NC(=O)c1cncc(O)c1)N1CCN=C21.Cl` [Example 2-122] are 285 °C (dec.) and under 0.1 µM.
Taken in the same sequence, the figures for `COc1cccc2c1N=C(NC(=O)c1ccc(N)nc1)N1CCN=C21.Cl` [Example 2-123] were 296 °C and under 0.1 µM.
On the same counts, the results for `COc1cccc2c1N=C(NC(=O)c1ccc3[nH]cnc3c1)N1CCN=C21` [Example 2-124] are 287 °C and under 0.1 µM.
For the compound `COc1cccc2c1N=C(NC(=O)c1cc3cccnc3nc1C)N1CCN=C21` [Example 2-126], the melting point is 183 to 184 °C. Besides, in data set [1], the IC50 was under 0.1 µM.
On the same counts, the results for `COc1cccc2c1N=C(NC(=O)c1cc3cccnc3nc1C(F)(F)F)N1CCN=C21` [Example 2-128] are 214 °C (dec.) and under 0.1 µM.
Taken in the same sequence, the figures for `O=C(NC1=Nc2ccccc2C2=NCCN12)c1cccnc1.O=C(O)C(F)(F)F` [Example 2-130] were 237 to 239 °C and under 0.1 µM.
On the same counts, the results for `Cc1ncccc1C(=O)NC1=Nc2ccccc2C2=NCCN12` [Example 2-131] are 193 to 194 °C and 0.1 to 0.5 µM.
On to `Nc1ncccc1C(=O)NC1=Nc2ccccc2C2=NCCN12` [Example 2-133], for which the melting point is 215 °C (dec.). The IC50 in data set [1] fell in the range of 0.1 to 0.5 µM.
On the same counts, the results for `O=C(NC1=Nc2ccccc2C2=NCCN12)c1cccnc1Cl` [Example 2-134] are 198 to 199 °C and under 0.1 µM.
On the same counts, the results for `Cl.O=C(NC1=Nc2ccccc2C2=NCCN12)c1cccnc1Cl` [Example 2-135] are 340 °C (dec.) and 0.1 to 0.5 µM.
On to `Cc1ccncc1C(=O)NC1=Nc2ccccc2C2=NCCN12` [Example 2-136], for which the melting point fell in the range of 194 to 195 °C. Further, the IC50 in data set [1] fell in the range of 0.1 to 0.5 µM.
On the same counts, the results for `O=C(NC1=Nc2ccccc2C2=NCCN12)c1cncc(O)c1` [Example 2-138] are 273 °C (dec.) and under 0.1 µM.
Take `COc1cncc(C(=O)NC2=Nc3ccccc3C3=NCCN23)c1` [Example 2-140]: the melting point was 219 °C (dec.). For the same compound, the IC50 in data set [1] lay within 0.1 to 0.5 µM.
Regarding `O=C(O)c1cncc(C(=O)NC2=Nc3ccccc3C3=NCCN23)c1` [Example 2-142], the melting point fell in the range of 358 to 359 °C. The IC50 in data set [1] lay in the range of 0.1 to 0.5 µM.
Taken in the same sequence, the figures for `CS(=O)(=O)Nc1cncc(C(=O)NC2=Nc3ccccc3C3=NCCN23)c1` [Example 2-143] were 265 to 269 °C and under 0.1 µM.
On the same counts, the results for `Nc1cncc(C(=O)NC2=Nc3ccccc3C3=NCCN23)c1` [Example 2-144] are 263 to 266 °C and under 0.1 µM.
Taken in the same sequence, the figures for `Nc1cncc(C(=O)NC2=Nc3ccccc3C3=NCCN23)c1.O=C(O)C(F)(F)F` [Example 2-145] were 220 °C (dec.) and 0.1 to 0.5 µM.
Turning to `CN(C)/C=N/c1cncc(C(=O)NC2=Nc3ccccc3C3=NCCN23)c1` [Example 2-146], the melting point is 219 °C (dec.). The IC50 in data set [1] was 0.1 to 0.5 µM.
Taken in the same sequence, the figures for `Cc1ccc(C(=O)NC2=Nc3ccccc3C3=NCCN23)cn1` [Example 2-147] were 195 to 196 °C and under 0.1 µM.
On the same counts, the results for `Nc1ccc(C(=O)NC2=Nc3ccccc3C3=NCCN23)cn1` [Example 2-149] are over 300 °C and under 0.1 µM.

The values are drawn from US7511041B2, “Fused azole-pyrimidine derivatives” (Bayer Pharmaceuticals Corporation, priority 2002, dated 2009).
